# Test results published in ChEMBL document CHEMBL1201862, “PubChem BioAssay data set” (2004).
# Calls of active or inactive are those of the source.
# What was measured:
# Format in all cases: functional
# [1] = target: Ribosomal protein S6 kinase alpha-3 (Homo sapiens, UniProt P51812);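 note: measured within a kinome-wide profiling panel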
# [2] = target: Dual specificity mitogen-activated protein kinase kinase 1 (Homo sapiens, UniProt Q02750); experiment: Navigating the Kinome. Panel member name: MAP2K1
# Chain of Dual specificity mitogen-activated protein kinase kinase 1 (Q02750 whole entry): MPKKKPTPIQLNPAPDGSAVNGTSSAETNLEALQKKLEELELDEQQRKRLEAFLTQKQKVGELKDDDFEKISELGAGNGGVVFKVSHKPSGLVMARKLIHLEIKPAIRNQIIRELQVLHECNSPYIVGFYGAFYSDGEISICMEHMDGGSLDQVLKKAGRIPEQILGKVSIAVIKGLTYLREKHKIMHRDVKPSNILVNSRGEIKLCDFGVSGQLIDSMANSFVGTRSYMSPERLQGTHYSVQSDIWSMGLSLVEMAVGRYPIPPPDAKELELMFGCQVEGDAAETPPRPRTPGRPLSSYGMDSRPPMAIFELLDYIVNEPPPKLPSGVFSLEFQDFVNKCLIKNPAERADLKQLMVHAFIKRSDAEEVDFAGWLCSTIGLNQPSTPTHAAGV
# [3] = target: Serine/threonine-protein kinase PLK3 (Homo sapiens, UniProt Q9H4B4)
# [4] = target: RAC-gamma serine/threonine-protein kinase (Homo sapiens, UniProt Q9Y243)
# [5] = target: Testis-specific serine/threonine-protein kinase 2 (Homo sapiens, UniProt Q96PF2);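 note: part of the Navigating the Kinome panel, target entry STK22B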
# [6] = target: Death-associated protein kinase 3 (Homo sapiens, UniProt O43293);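 note: measured as one member of a kinome-wide profiling panel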
# SRSF protein kinase 1 = SRSF protein kinase 1 (Homo sapiens, UniProt Q96SB4);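 note: measured as one member of a kinome-wide kinase profiling panel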
# [7] = target: MAP kinase-activated protein kinase 5 (Homo sapiens, UniProt Q8IW41);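 note: measured as one member of a kinome panel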
# [8] = target: Mast/stem cell growth factor receptor Kit (Homo sapiens, UniProt P10721);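 note: KIT entry within a kinase panel assay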
# [9] = target: Casein kinase I isoform alpha (Homo sapiens, UniProt P48729)
# Chain of Casein kinase I isoform alpha (P48729 whole entry, canonical isoform): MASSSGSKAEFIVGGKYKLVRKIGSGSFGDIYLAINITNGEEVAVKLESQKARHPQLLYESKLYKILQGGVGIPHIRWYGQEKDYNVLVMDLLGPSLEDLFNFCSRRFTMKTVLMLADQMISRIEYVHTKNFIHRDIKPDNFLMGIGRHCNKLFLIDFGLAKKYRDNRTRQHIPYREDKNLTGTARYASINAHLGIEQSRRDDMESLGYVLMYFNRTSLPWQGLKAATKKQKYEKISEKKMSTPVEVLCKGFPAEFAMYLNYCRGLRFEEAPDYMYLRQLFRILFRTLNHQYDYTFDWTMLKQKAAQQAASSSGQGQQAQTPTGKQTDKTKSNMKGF
# [10] = target: T1, Serine/threonine-protein kinase TAO1 (Homo sapiens, UniProt Q7L7X3)
# T1 sequence (Q7L7X3 whole entry): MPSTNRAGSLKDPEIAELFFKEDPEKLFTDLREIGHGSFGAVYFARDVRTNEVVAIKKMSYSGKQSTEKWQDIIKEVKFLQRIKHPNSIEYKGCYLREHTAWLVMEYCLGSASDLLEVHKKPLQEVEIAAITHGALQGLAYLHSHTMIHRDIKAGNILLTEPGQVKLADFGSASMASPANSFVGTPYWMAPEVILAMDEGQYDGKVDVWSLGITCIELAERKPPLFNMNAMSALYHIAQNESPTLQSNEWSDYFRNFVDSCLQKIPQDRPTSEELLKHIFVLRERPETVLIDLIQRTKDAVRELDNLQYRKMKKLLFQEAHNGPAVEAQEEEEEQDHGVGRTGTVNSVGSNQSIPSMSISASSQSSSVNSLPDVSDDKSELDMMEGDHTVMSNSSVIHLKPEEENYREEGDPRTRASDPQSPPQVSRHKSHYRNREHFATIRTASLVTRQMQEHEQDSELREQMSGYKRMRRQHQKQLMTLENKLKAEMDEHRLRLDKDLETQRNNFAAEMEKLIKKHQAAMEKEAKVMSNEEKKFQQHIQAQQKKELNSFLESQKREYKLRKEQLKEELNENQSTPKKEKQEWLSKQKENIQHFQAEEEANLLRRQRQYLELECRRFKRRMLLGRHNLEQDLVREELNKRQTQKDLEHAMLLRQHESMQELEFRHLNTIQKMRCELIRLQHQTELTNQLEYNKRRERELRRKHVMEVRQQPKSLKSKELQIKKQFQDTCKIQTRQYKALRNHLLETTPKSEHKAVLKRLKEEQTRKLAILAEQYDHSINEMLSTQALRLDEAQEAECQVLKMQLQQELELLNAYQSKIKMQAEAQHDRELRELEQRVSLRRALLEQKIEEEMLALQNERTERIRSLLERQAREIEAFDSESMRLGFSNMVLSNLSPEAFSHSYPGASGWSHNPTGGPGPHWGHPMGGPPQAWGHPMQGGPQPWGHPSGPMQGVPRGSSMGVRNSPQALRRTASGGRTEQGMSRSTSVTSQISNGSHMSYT
# [11] = target: Protein kinase C gamma type (Homo sapiens, UniProt P05129)
# [12] = target: Hepatocyte growth factor receptor (Homo sapiens, UniProt P08581);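 note: kinase panel profiling across the kinome, with MET as the panel member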
# [13] = target: Serine/threonine-protein kinase Nek4 (Homo sapiens, UniProt P51957)
# Chain of Serine/threonine-protein kinase Nek4 (P51957 whole entry): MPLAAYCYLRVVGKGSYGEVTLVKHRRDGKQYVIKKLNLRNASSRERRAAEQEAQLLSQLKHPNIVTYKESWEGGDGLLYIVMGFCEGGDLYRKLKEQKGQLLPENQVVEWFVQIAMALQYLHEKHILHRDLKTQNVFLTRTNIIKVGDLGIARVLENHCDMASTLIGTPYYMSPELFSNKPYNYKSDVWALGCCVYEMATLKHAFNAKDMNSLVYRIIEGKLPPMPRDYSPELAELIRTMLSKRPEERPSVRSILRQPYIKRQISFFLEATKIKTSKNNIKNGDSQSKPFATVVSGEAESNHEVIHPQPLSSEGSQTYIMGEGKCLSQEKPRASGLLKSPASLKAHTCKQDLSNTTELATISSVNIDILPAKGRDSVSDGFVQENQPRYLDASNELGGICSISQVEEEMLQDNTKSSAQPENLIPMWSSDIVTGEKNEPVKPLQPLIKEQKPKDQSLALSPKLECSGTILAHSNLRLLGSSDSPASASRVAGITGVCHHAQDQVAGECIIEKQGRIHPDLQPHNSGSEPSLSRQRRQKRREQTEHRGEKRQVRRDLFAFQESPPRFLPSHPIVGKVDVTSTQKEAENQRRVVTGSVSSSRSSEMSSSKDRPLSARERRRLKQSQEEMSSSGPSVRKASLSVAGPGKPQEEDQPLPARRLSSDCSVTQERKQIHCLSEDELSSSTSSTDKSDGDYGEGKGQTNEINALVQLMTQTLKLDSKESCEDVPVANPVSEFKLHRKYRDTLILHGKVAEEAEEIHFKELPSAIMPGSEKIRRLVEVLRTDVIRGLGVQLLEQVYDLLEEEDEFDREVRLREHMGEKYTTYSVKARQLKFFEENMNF
# [14] = target: T2, Dual specificity tyrosine-phosphorylation-regulated kinase 4 (Homo sapiens, UniProt Q9NR20)
# T2 sequence (Q9NR20 whole entry): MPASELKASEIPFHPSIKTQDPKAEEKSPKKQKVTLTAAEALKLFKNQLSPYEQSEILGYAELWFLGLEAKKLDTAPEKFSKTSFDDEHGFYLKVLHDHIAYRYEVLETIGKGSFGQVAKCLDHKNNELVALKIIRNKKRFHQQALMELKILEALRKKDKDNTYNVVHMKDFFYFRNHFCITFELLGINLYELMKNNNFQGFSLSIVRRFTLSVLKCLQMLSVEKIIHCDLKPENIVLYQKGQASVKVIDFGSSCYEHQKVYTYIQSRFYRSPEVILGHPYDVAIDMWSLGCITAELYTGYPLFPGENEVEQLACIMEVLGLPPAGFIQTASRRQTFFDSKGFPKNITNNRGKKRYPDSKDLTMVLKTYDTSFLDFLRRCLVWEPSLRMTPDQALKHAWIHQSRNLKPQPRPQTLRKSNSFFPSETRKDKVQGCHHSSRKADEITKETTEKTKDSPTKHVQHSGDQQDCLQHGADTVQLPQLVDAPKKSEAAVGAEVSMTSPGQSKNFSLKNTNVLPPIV
# [15] = target: Maternal embryonic leucine zipper kinase (Homo sapiens, UniProt Q14680)
# [16] = target: Rho-associated protein kinase 1 (Homo sapiens, UniProt Q13464);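 note: measured within a broad kinome-wide panel profiling many kinases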
# Chain of Rho-associated protein kinase 1 (Q13464 whole entry): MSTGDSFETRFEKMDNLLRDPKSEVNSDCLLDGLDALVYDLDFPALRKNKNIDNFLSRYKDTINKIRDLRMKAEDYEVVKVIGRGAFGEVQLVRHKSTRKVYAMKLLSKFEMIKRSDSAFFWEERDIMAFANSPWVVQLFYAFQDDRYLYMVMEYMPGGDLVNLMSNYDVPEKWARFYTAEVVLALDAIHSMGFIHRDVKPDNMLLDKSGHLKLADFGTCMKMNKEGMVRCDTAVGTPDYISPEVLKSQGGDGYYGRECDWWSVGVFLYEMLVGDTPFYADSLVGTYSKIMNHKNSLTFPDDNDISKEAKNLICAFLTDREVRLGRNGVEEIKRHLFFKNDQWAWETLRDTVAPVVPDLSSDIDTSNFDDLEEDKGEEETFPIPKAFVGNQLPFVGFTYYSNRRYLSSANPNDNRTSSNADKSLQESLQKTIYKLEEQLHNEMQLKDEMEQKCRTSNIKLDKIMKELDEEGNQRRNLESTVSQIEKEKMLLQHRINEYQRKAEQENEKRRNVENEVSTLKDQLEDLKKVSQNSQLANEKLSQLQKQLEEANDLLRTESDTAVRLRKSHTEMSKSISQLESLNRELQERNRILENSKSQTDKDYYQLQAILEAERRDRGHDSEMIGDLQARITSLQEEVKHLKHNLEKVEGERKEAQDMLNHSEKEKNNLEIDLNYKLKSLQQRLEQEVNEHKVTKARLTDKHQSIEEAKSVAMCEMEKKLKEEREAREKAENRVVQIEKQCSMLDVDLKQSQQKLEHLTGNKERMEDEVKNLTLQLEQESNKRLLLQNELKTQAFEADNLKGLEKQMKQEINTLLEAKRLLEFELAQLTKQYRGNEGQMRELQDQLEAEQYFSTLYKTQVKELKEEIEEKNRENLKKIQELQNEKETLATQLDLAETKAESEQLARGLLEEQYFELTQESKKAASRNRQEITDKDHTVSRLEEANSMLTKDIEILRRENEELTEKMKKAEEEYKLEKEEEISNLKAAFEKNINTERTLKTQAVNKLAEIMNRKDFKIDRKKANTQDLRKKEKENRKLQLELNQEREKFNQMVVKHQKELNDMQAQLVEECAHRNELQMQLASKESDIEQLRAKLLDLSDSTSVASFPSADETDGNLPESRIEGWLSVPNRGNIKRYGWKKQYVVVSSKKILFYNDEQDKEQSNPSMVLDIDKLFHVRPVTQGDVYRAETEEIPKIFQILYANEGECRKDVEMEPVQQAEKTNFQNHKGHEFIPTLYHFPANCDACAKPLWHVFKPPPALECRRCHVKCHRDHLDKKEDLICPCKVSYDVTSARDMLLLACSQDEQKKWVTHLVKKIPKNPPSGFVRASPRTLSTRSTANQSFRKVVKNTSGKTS
# [17] = target: Tyrosine-protein kinase Fer (Homo sapiens, UniProt P16591);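 note: FER tested as one member of a kinome panel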
# [18] = target: Serine/threonine-protein kinase pim-2 (Homo sapiens, UniProt Q9P1W9);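 note: value comes from a broad kinase panel profiling study in which PIM2 was one of the panel members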
# [19] = target: Lymphokine-activated killer T-cell-originated protein kinase (Homo sapiens, UniProt Q96KB5);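 note: value comes from a kinase panel screen in which TOPK was one of the panel members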
# [20] = target: Serine/threonine-protein kinase MRCK alpha (Homo sapiens, UniProt Q5VT25)
# [21] = target: Dual specificity mitogen-activated protein kinase kinase 2 (Homo sapiens, UniProt P36507); experiment: Navigating the Kinome. Panel member name: MAP2K2
# [22] = target: Tyrosine-protein kinase FRK (Homo sapiens, UniProt P42685);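 note: FRK tested as one member of a kinome panel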
# Chain of Tyrosine-protein kinase FRK (P42685 whole entry): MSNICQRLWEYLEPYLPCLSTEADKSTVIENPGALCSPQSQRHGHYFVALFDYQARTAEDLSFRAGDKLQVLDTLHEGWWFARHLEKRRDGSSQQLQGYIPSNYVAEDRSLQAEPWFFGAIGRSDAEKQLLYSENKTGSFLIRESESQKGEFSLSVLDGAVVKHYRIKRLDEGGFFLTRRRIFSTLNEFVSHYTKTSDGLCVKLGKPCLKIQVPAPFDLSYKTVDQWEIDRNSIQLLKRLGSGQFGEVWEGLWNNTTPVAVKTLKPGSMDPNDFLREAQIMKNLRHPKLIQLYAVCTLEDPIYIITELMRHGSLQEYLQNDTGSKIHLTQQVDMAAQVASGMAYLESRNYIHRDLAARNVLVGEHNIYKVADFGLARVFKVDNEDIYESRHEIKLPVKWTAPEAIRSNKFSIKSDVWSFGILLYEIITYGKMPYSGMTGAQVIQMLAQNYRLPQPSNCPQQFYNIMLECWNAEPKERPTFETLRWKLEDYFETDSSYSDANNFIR
# [23] = target: Serine/threonine-protein kinase D3 (Homo sapiens, UniProt O94806);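 note: determined within a kinase panel screen, with PRKCN as the panel member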
# Chain of Ribosomal protein S6 kinase alpha-3 (P51812 whole entry): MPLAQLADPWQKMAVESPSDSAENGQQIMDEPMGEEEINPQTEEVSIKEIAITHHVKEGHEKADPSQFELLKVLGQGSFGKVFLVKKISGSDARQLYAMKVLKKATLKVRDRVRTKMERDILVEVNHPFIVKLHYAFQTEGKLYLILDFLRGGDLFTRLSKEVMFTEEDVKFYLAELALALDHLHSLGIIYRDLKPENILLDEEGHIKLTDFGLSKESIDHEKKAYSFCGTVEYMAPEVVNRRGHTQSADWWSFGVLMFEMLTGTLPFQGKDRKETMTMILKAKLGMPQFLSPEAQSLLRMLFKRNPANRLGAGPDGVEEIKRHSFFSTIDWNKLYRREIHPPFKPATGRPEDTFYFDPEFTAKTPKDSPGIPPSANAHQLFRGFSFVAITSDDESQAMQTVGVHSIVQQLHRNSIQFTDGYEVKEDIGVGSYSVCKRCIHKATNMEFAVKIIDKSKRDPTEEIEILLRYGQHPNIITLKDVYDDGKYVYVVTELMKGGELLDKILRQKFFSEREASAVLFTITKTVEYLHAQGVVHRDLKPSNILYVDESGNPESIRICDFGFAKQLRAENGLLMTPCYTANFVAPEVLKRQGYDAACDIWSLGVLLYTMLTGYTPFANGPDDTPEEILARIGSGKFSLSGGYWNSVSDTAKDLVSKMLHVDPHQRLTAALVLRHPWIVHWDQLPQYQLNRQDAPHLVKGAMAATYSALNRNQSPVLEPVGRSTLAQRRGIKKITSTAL
Structure (SMILES),Ki [1],Ki [2],Ki [3],Ki [4],Ki [5],Ki [6],Ki (SRSF protein kinase 1),Ki [7],Ki [8],Ki [9],Ki [10],Ki [11],Ki [12],Ki [13],Ki [14],Ki [15],Ki [16],Ki [17],Ki [18],Ki [19],further results
NC(=O)c1cc(-c2ccnc(N)n2)[nH]c1-c1ccc(Cl)cc1Cl,50.1 nM (active),2000 nM (active),> 7940 nM (inactive),6310 nM (active),> 1580 nM (inactive),398 nM (active),1260 nM (active),> 1580 nM (inactive),> 1260 nM (inactive),7.94 nM (active),251 nM (active),251 nM (active),> 2510 nM (inactive),50.1 nM (active),10 nM (active),> 1580 nM (inactive),126 nM (active),> 1580 nM (inactive),> 1580 nM (inactive),3160 nM (active),pKi [1]: 7.3; pKi [2]: 5.7; pKi [4]: 5.2; pKi [6]: 6.4; pKi (SRSF protein kinase 1): 5.9; pKi [9]: 8.1; pKi [10]: 6.6; pKi [11]: 6.6; pKi [13]: 7.3; pKi [14]: 8; pKi [16]: 6.9; Ki [20]: 1260 nM (active); pKi [20]: 5.9; Ki [21]: > 3980 nM (inactive); Ki [22]: 2000 nM (active); pKi [22]: 5.7
NC(COc1cncc(-c2ccc3c(c2)C(=Cc2ccco2)C(=O)N3)c1)Cc1c[nH]c2ccccc12 (stereo unspecified),,,501 nM (active),5.01 nM (active),794 nM (active),20 nM (active),79.4 nM (active),> 1580 nM (inactive),126 nM (active),501 nM (active),126 nM (active),31.6 nM (active),> 3160 nM (inactive),1580 nM (active),398 nM (active),5.01 nM (active),31.6 nM (active),398 nM (active),1 nM (active),501 nM (active),Ki [23]: 6.31 nM (active); Ki [20]: 316 nM (active); Ki [22]: 316 nM (active)
Cc1ccc(-n2nc(C(C)(C)C)cc2NC(=O)Nc2ccc(OCCN3CCOCC3)c3ccccc23)cc1 [DORAMAPIMOD],> 3980 nM (inactive),> 3160 nM (inactive),,,,,,,,,,,,,,,,,,,Ki [23]: > 3980 nM (inactive); Ki [21]: > 3980 nM (inactive)
